The nature of series [1]: Biodistribution at 24 h p.i. in AR42J tumour-bearing CB17-SCID mice. It is filed as in vivo. To be noted: mouse, in vivo, 100 pmol, n = 4, mean ± SD. The method, then: Figure 4 Biodistribution of the reference compound, [^177Lu]Lu-DOTA-PP-F11N (blue), the α-linked [^177Lu]Lu-(R)-DOTAGA-rhCCK-9 (red) and the γ-linked [^177Lu]Lu-(R)-DOTAGA-rhCCK-16 (green) in selected organs (%ID/g) at 24 h p.i. in AR42J tumour-bearing CB17-SCID mice (100 pmol each, n = 4). Data is expressed as mean ± SD.
All animal experiments were conducted in accordance with general animal welfare regulations in Germany (German animal protection act, in the edition of the announcement, dated 18 May 2006, as amended by Article 280 of 19 June 2020, approval no. ROB-55.2-1-2532.Vet_02-18-109 by the General Administration of Upper Bavaria) and the institutional guidelines for the care and use of animals. CB17-SCID mice of both genders and aged 2–12 months (Charles River Laboratories International Inc., Sulzfeld, Germany) were allowed to acclimate at the in-house animal facility for at least one week prior to tumour cell inoculation was performed. Tumour xenografts were generated using AR42J cells (5.0 × 10^6 cells per 200 µL) suspended in a 1/1 mixture (v/v) of RPMI 1640 medium and Cultrex® Basement Membrane Matrix Type 3 (Trevigen, Gaithersburg, MD, USA). This suspension was inoculated subcutaneously onto the right shoulder and animals were used when tumour volume was >100 mm^3 (1–2 week after inoculation). Exclusion criteria for animals from an experiment were either weight loss higher than 20%, a tumour size above 1500 mm^3, an ulceration of the tumour, respiratory distress or a change of behaviour. None of these criteria applied to any animal from the experiment. Neither randomisation nor blinding was applied in the allocation of the experiments. Health status is SPF according to FELASA.
For biodistribution studies, the ^177Lu-labelled compound (approx. 2–3 MBq, 100 pmol) was injected into a lateral tail vein (n = 4) of anesthetised (2% isoflurane) AR42J tumour-bearing CB-17-SCID mice. At 24 h post-injection (p.i.), the mice were euthanised. Thereafter, the pertinent organs were removed, weighed and measured using a γ-counter.

Series [2] can be described thus: Lipophilicity, n-octanol/PBS (pH 7.4) distribution coefficient. It is filed as physicochemical. As to the method:
Lipophilicity (depicted as octanol-phosphate-buffered saline solution (PBS, pH = 7.4) distribution coefficient, logD7.4) was determined via dissolving the ^177Lu-labelled peptide (approx. 1 MBq) in a mixture (1/1, v/v) of n-octanol and PBS. The suspension was vortexed in a reaction vial (1.5 mL) for 3 min at RT and the vial was centrifuged at 9000× […] for 5 min (Biofuge 15, Heraus Sepatech GmbH, Osterode, Germany). 200 μL aliquots of both layers were measured separately in a γ-counter (Perkin Elmer, Waltham, MA, USA). The experiment was repeated at least five times.

The mark [3] stands for this setting: AR42J tumour, read-out: Biodistribution, Tumour.
Where [4] appears, read: read-out: Biodistribution, Adrenal.
Where [5] appears, read: read-out: Biodistribution, Blood.
The mark [6] stands for this setting: read-out: Biodistribution, Bone.
The mark [7] stands for this setting: read-out: Biodistribution, Heart.
Where [8] appears, read: read-out: Biodistribution, Intestine.
Setting [9] is: read-out: Biodistribution, Kidney.
The mark [10] stands for this setting: read-out: Biodistribution, Liver.
Setting [11] is: read-out: Biodistribution, Lung.
The mark [12] stands for this setting: read-out: Biodistribution, Muscle.
Where [13] appears, read: read-out: Biodistribution, Pancreas.
Where [14] appears, read: read-out: Biodistribution, Spleen.
Setting [15] is: read-out: Biodistribution, Stomach.
Where [16] appears, read: 177Lu-labelled peptide, n-octanol/PBS pH 7.4, read-out: logD7.4.

Molecules are shown by their SMILES. Like-named read-outs stand apart in the source and are kept apart here. Non-standard residues stand in square brackets, D forms with d. Residues, ends and D or L forms follow the SMILES beside them. *: point of attachment. X1 = O=C(O)CN1CCN(CC(=O)O)CCN([C@H](CCC(=O)*)C(=O)O)CCN(CC(=O)O)CC1; Benzoyl(4-SiFtBu2) = CC(C)(C)[Si](F)(c1ccc(C(=O)*)cc1)C(C)(C)C; Nle = CCCC[C@H](N)C(=O)O; dDap = NC[C@@H](N)C(=O)O

As to `CCCC[C@H](NC(=O)[C@H](Cc1c[nH]c2ccccc12)NC(=O)CNC(=O)[C@H](Cc1ccc(O)cc1)NC(=O)[C@H](C)NC(=O)[C@@H](CCC(=O)O)NC(=O)[C@@H](CCC(=O)O)NC(=O)[C@@H](CCC(=O)O)NC(=O)[C@@H](CCC(=O)O)NC(=O)[C@@H](CCC(=O)O)NC(=O)[C@@H](CCC(=O)O)NC(=O)[C@@H](CCC(=O)O)NC(=O)[C@@H](CCC(=O)O)NC(=O)[C@@H](CNC(=O)c1ccc([Si](F)(C(C)(C)C)C(C)(C)C)cc1)NC(=O)CC[C@H](C(=O)O)N1CCN(CC(=O)O)CCN(CC(=O)O)CCN(CC(=O)O)CC1)C(=O)N[C@@H](CC(=O)O)C(=O)N[C@@H](Cc1ccccc1)C(N)=O` [[nat/177Lu]Lu-(R)-DOTAGA-rhCCK-9, metal not drawn] (X1-[dDap](Benzoyl(4-SiFtBu2))[dE][dE][dE][dE][dE][dE][dE][dE]AYGW[Nle]DF-NH2), the tissue uptake at 24 h in series [1] (setting [3]) stood at 6.4 ± 1.48 %ID/g; in series [1] (setting [4]) it was 0.45 ± 0.3 %ID/g; in series [1] (setting [5]), 0.02 %ID/g; in series [1] (setting [6]) it was 0.82 ± 0.42 %ID/g; in series [1] (setting [7]), 0.09 ± 0.03 %ID/g; in series [1] (setting [8]) it was 0.26 ± 0.04 %ID/g. The tissue uptake at 24 h in series [1] (setting [9]) amounted to 84.4 ± 22.7 %ID/g; in series [1] (setting [10]), 1.07 ± 0.54 %ID/g; in series [1] (setting [11]) it was 0.1 ± 0.05 %ID/g; in series [1] (setting [12]), 0.03 ± 0.01 %ID/g; in series [1] (setting [13]), 0.31 ± 0.2 %ID/g; in series [1] (setting [14]), 0.7 ± 0.69 %ID/g. Further, the tissue uptake at 24 h in series [1] (setting [15]) was found to be 1.8 ± 0.37 %ID/g. Further, the logD in series [2] (setting [16]) is -2.84 ± 0.04.
Consider `CCCC[C@H](NC(=O)[C@H](Cc1c[nH]c2ccccc12)NC(=O)CNC(=O)[C@H](Cc1ccc(O)cc1)NC(=O)[C@H](C)NC(=O)CC[C@@H](NC(=O)CC[C@@H](NC(=O)CC[C@@H](NC(=O)CC[C@@H](NC(=O)CC[C@@H](NC(=O)CC[C@@H](NC(=O)[C@@H](CNC(=O)c1ccc([Si](F)(C(C)(C)C)C(C)(C)C)cc1)NC(=O)CC[C@H](C(=O)O)N1CCN(CC(=O)O)CCN(CC(=O)O)CCN(CC(=O)O)CC1)C(=O)O)C(=O)O)C(=O)O)C(=O)O)C(=O)O)C(=O)O)C(=O)N[C@@H](CC(=O)O)C(=O)N[C@@H](Cc1ccccc1)C(N)=O` [[nat/177Lu]Lu-(R)-DOTAGA-rhCCK-16, metal not drawn], for which the tissue uptake at 24 h amounted to 15.7 ± 3.3 %ID/g in series [1] (setting [3]); 1.49 ± 1.5 %ID/g in series [1] (setting [4]); 0.01 %ID/g in series [1] (setting [5]); 0.17 ± 0.02 %ID/g in series [1] (setting [6]); 0.11 ± 0.01 %ID/g in series [1] (setting [7]); 0.2 ± 0.04 %ID/g in series [1] (setting [8]). In addition, the tissue uptake at 24 h in series [1] (setting [9]) worked out at 85.5 ± 11.3 %ID/g; in series [1] (setting [10]), 1.18 ± 0.27 %ID/g; in series [1] (setting [11]), 0.09 ± 0.02 %ID/g; in series [1] (setting [12]), 0.05 ± 0.01 %ID/g; in series [1] (setting [13]), 0.39 ± 0.12 %ID/g; in series [1] (setting [14]) it was 0.62 ± 0.03 %ID/g. The tissue uptake at 24 h in series [1] (setting [15]) worked out at 3.51 ± 0.5 %ID/g. Besides, in series [2] (setting [16]), the logD was -2.54 ± 0.05.
In the case of `CSCC[C@H](NC(=O)[C@H](Cc1c[nH]c2ccccc12)NC(=O)CNC(=O)[C@H](Cc1ccc(O)cc1)NC(=O)[C@H](C)NC(=O)[C@@H](CCC(=O)O)NC(=O)[C@@H](CCC(=O)O)NC(=O)[C@@H](CCC(=O)O)NC(=O)[C@@H](CCC(=O)O)NC(=O)[C@@H](CCC(=O)O)NC(=O)[C@@H](CCC(=O)O)NC(=O)CN1CCN(CC(=O)O)CCN(CC(=O)O)CCN(CC(=O)O)CC1)C(=O)N[C@@H](CC(=O)O)C(=O)N[C@@H](Cc1ccccc1)C(N)=O` [[nat/177Lu]Lu-CP04, metal not drawn, reference compound], the logD in series [2] (pH 7.4) is -3.8 ± 0.1.
With `CCCC[C@H](NC(=O)[C@H](Cc1c[nH]c2ccccc12)NC(=O)CNC(=O)[C@H](Cc1ccc(O)cc1)NC(=O)[C@H](C)NC(=O)[C@@H](CCC(=O)O)NC(=O)[C@@H](CCC(=O)O)NC(=O)[C@@H](CCC(=O)O)NC(=O)[C@@H](CCC(=O)O)NC(=O)[C@@H](CCC(=O)O)NC(=O)[C@@H](CCC(=O)O)NC(=O)CN1CCN(CC(=O)O)CCN(CC(=O)O)CCN(CC(=O)O)CC1)C(=O)N[C@@H](CC(=O)O)C(=O)N[C@@H](Cc1ccccc1)C(N)=O` [[nat/177Lu]Lu-DOTA-PP-F11N, metal not drawn, reference compound], the tissue uptake at 24 h in series [1] (setting [3]) was 1.88 ± 0.82 %ID/g; in series [1] (setting [4]) it was 0.03 ± 0.03 %ID/g; in series [1] (setting [6]), 0.03 ± 0.01 %ID/g; in series [1] (setting [8]), 0.04 ± 0.02 %ID/g; in series [1] (setting [9]) it was 3.08 ± 0.51 %ID/g; in series [1] (setting [10]), 0.67 ± 0.64 %ID/g. In addition, the tissue uptake at 24 h in series [1] (setting [13]) was determined as 0.05 ± 0.01 %ID/g; in series [1] (setting [14]) it was 0.07 ± 0.03 %ID/g; in series [1] (setting [15]) it was 0.36 ± 0.05 %ID/g. Further, the logD in series [2] (setting [16]) is -4.75 ± 0.07.

(Values after publication PMC9783573, “Introduction of a SiFA Moiety into the D-Glutamate Chain of DOTA-PP-F11N Results in Radiohybrid-Based CCK-2R-Targeted Compounds with Improved Pharmacokinetics In Vivo” (Pharmaceuticals, 2022).)
